Like-named read-outs stand apart in the source and are kept apart here.
Experiments:
H1 receptor = molecular target: T1, H1 receptor (Sus scrofa, UniProt K9IVW0); assay: histamine-induced short-circuit current (ΔIsc) in cultured airway mucus gland cells, Ussing chamber; assay type: cell-based, swine
T1 construct: Tracheal submucosal gland cells were isolated from the tracheal epithelium; endogenous in cells; host or cells: primary swine tracheal submucosal (mucus) gland cells in culture

[1] = molecular target: T2, M3 subtype muscarinic receptor (Sus scrofa, UniProt P11483); assay: ACh-induced short-circuit current (ΔIsc) in cultured airway mucus gland cells, Ussing chamber, Schild dose-ratio method; assay type: cell-based, swine; details: for effect on the cholinergic (ACh) response / antimuscarinic action: at highest drug concentration tested: cetirizine 100 μM, loratadine 30 μM (Table 1; abstract 10 μM), fexofenadine 10 μM; for Muscarinic inhibition (pA2): Schild dose-ratio method, slope set to 1, inhibition of ACh-induced ΔIsc, pA2 = -log Ki, mean ± SEM
T2 construct: Tracheal submucosal gland cells were isolated from the tracheal epithelium; endogenous in cells; host or cells: primary swine tracheal submucosal (mucus) gland cells in culture
T2 sequence (P11483 whole entry): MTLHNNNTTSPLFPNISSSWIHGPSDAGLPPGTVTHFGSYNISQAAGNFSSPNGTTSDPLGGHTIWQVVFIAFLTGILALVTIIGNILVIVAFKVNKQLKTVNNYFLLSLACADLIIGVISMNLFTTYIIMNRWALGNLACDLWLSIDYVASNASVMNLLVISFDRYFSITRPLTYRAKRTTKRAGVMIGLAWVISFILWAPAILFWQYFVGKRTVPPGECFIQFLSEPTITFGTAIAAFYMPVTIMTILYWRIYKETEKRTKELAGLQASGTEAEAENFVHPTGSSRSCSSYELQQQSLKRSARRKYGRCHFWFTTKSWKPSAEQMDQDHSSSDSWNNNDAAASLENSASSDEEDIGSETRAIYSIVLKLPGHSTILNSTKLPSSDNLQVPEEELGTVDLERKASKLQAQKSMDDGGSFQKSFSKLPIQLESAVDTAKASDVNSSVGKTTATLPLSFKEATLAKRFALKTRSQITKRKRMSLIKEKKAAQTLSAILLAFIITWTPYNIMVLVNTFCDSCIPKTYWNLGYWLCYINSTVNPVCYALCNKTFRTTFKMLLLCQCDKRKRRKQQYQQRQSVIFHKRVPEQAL

histamine H1 receptor = details: radioligand binding assays; ref 18 Anthes et al.; cited from earlier work
[2] = molecular target: muscarinic receptors in the cerebral cortex; details: read-out: Ki against muscarinic receptors, radioligand (QNB) binding, all muscarinic subtypes, ref 16 Kubo et al.; cited from earlier work
[3] = read-out: H1 receptor inhibition (~1/2 max-μM)

T1 sequence (K9IVW0 1-472): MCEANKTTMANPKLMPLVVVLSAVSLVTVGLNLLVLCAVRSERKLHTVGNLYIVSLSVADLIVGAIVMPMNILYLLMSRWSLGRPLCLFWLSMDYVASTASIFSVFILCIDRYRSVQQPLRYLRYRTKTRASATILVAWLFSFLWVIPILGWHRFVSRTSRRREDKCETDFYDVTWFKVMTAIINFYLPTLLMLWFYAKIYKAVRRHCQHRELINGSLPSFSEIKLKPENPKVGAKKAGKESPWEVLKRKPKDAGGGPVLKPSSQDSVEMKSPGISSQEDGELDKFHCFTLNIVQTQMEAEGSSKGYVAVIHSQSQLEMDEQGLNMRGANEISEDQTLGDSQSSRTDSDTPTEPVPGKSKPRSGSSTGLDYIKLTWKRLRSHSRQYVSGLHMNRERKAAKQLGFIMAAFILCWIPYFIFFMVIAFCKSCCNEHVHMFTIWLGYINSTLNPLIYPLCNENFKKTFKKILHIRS

## NCCc1c[nH]cn1 [histamine]
H1 receptor
  maximum increase in current (ΔIsc): 19 ± 1 μA/cm^2

## CC(C)(C(=O)O)c1ccc(C(O)CCCN2CCC(C(O)(c3ccccc3)c3ccccc3)CC2)cc1 (centres unmarked) [Fexofenadine]
H1 receptor; H1 receptor inhibition (~1/2 max-μM)
  IC50: 0.25 µM

## O=C(O)COCCN1CCN(C(c2ccccc2)c2ccc(Cl)cc2)CC1 (centres unmarked) [Cetirizine]
H1 receptor; [3]
  IC50: 0.12 µM
[1]
  effect on the cholinergic (ACh) response / antimuscarinic action: No effect (at 100 μM)
[1]; listed as cetirizine
  effect on the cholinergic (ACh) response / antimuscarinic action: no effects

## COc1ccccc1CNCCCCCCNCCCCCCCCNCCCCCCNCc1ccccc1OC [Methoctramine]
[1]
  Kb: 2510 nM
  Muscarinic inhibition (pA2): 5.6

## OCCOCCN1CCN(C(c2ccccc2)c2ccc(Cl)cc2)CC1 (centres unmarked) [Hydroxyzine]
H1 receptor; [3]
  IC50: 0.14 µM
[1]
  Kb: 15800 nM
  Muscarinic inhibition (pA2): 4.8
[1]; M3 muscarinic receptor induced ΔIsc, from Schild analysis, read-out: estimated Ki for inhibition of muscarinic receptors
  Ki: 15000 nM
Histamine H1 receptor
  Kb: 10 nM
[2]
  Ki: 3800 nM

## CC(=O)OCC[N+](C)(C)C [ACh, acetylcholine]
[1]
  maximum increase in current (ΔIsc): 15.5 ± 1 μA/cm^2

Source: paper PMC1079883, “Effects of first and second generation antihistamines on muscarinic induced mucus gland cell ion transport” (BMC Pharmacology, 2005)
